Structures are written as SMILES. Square brackets hold non-standard residues; d marks the D form. Peptide text beside a SMILES is read from it. Gly(N(CH2)2(3-indolyl)) = O=C(O)CNCCc1c[nH]c2ccccc12; Nspe = C[C@H](NCC(=O)O)c1ccccc1; Nphe = O=C(O)CNCc1ccccc1; Nlys = NCCCCNCC(=O)O Where only a bound is given, the exact number is not on record here.

One data set relates to rat erythrocytes. Briefly: Hemolysis assay. It counts as cell-based. How it is done:
The hemolysis assay was performed using rat erythrocytes in phosphate‐buffered saline (PBS), as reported by Mendes et al.^[ [45] ^] Animal studies were approved by the Laboratory Animal Resource Center of Gwangju Institute of Science and Technology. Blood was collected from a 13‐week‐old male Sprague‐Dawley rat in tubes containing 158 USP units of sodium heparin to prevent coagulation and centrifuged at 1000 rpm for 10 min at 4 °C. Plasma was removed carefully and erythrocyte pellets were washed three times with PBS (35 mM phosphate, pH 7.4, 150 mM NaCl). Next, 150 µL of a 10% erythrocyte suspension was mixed with 50 µL of serially diluted peptoids (0–100 µM) in a 96‐well black polypropylene plates (Greiner, Kremsmünster, Austria). Untreated erythrocytes and cells lysed by the addition of 1% Triton X‐100 were used as negative and positive controls, respectively, with the 1% Triton X‐100‐treated wells being accepted to represent 100% hemolysis. The reaction mixture was incubated at 37 °C for 60 min, and the plates were centrifuged at 1000 rpm for 15 min. Aliquots (150 µL) of the supernatant were transferred to fresh 96‐well plates, and the absorbance of each well was measured at 540 nm using a microplate reader. Hemolysis induced by peptoids was calculated as the percentage value of Triton X‐100 lysed cells. The percentage of hemolysis by the extracts was calculated according to the following formula: % hemolysis = [(Abs 540 nm in the peptoid solution – Abs 540 nm in PBS) / (Abs 540 nm in 1% Triton X‐100 – Abs 540 nm in PBS)] × 100. HC10 and HC50 were defined as the peptoid concentrations that caused 10% and 50% hemolysis in rat erythrocytes, respectively. H max indicates the percentage of hemolysis observed at the maximum peptoid concentration, 100 µM throughout this study.

The nature of data set [1]: Analytical reversed-phase HPLC elution (hydrophobicity). The class given is physicochemical. Particulars: Table S1; analytical RP-HPLC, SunFire C18, water/ACN + 0.1% TFA, 5 to 100% B linear over 30 min, 1 mL/min, UV 220 nm; approximate comparison of hydrophobicity. As for the experimental part:
7. HPLC chromatogram, retention time (tR), and LC-MS data
HPLC analysis of peptoids was conducted using a Waters HPLC system equipped with a Waters 2489 UV/Visible Detector, 1525 Binary HPLC Pump, 2707 Autosampler, 5CH column oven, and a C18 column (SunFire C18, 4.6 × 250 mm, 5 μm; Waters Corp., Milford, MA, USA). The mobile phases were deionized water (A, with + 0.1% TFA) and acetonitrile (ACN; B, with + 0.1% TFA). Before sample injection, the column was conditioned with 5% B for 10 min. Then, the mobile phase was maintained at 5% B for 2 min, followed by increasing B to 100% using a linear gradient over 30 min. At this point, 100% B was maintained for 5 additional min. The flow rate of the mobile phase was 1 mL/min. The sample was detected by measuring absorbance at 220 nm. […]

The term HC50 denotes the concentration giving 50% haemolysis. Take `C[C@@H](c1ccccc1)N(CC(N)=O)C(=O)CN(C(=O)CN(CCCCN)C(=O)CN(C(=O)CN(C(=O)CN(CCCCN)C(=O)CN(CCc1c[nH]c2ccccc12)C(=O)CN(CCc1c[nH]c2ccccc12)C(=O)CN(CCCCN)C(=O)CN(C(=O)CN(C(=O)CNCCCCN)[C@@H](C)c1ccccc1)[C@@H](C)c1ccccc1)[C@@H](C)c1ccccc1)[C@@H](C)c1ccccc1)[C@@H](C)c1ccccc1` [peptoid 13]: the “Hmax (100 µM)” value with rat erythrocytes is given as 96.8±1.6%. In the data set on rat erythrocytes (pH 7.4), this compound yielded an HC10 of 20.2 µM and an HC50 of 41.3 µM. The HPLC elution in data set [1] was 56.0 % MeCN.

For the compound `C[C@@H](c1ccccc1)N(CC(=O)N(CCCCN)CC(=O)N(CC(=O)N(CC(=O)N(CCCCN)CC(=O)N(CC(=O)N(CC(=O)N(CCCCN)CC(N)=O)[C@@H](C)c1ccccc1)[C@@H](C)c1ccccc1)[C@@H](C)c1ccccc1)[C@@H](C)c1ccccc1)C(=O)CN(C(=O)CN(CCCCN)C(=O)CN(CCc1c[nH]c2ccccc12)C(=O)CNCCc1c[nH]c2ccccc12)[C@@H](C)c1ccccc1` [peptoid 37] (H-[Gly(N(CH2)2(3-indolyl))][Gly(N(CH2)2(3-indolyl))][Nlys][Nspe][Nspe][Nlys][Nspe][Nspe][Nlys][Nspe][Nspe][Nlys]-NH2), in the data set on rat erythrocytes (pH 7.4), the HC10 came out at 21.1 µM and the HC50 was 57.0 µM. In the data set on rat erythrocytes (red cells of rat), this compound gave an HC10 of 13.2 µM and an HC50 of 38.6 µM. In data set [1], the HPLC elution is on record as 52.7 % MeCN.

As to `NCCCCNCC(=O)N(CC(=O)N(CC(=O)N(CCCCN)CC(=O)N(CC(=O)N(CC(=O)N(CCCCN)CC(=O)N(CC(=O)N(CC(=O)N(CCCCN)CC(=O)N(CC(=O)N(CC(N)=O)Cc1ccccc1)Cc1ccccc1)Cc1ccccc1)Cc1ccccc1)Cc1ccccc1)Cc1ccccc1)Cc1ccccc1)Cc1ccccc1` [peptoid 2, reference compound] (H-[Nlys][Nphe][Nphe][Nlys][Nphe][Nphe][Nlys][Nphe][Nphe][Nlys][Nphe][Nphe]-NH2), in the data set on rat erythrocytes, the “Hmax (100 µM)” value was found to be 17.7±1.1%. In the data set with rat erythrocytes (pH 7.4), this compound came in with an HC10 of 20.4 µM and an HC50 of more than 100.0 µM. In addition, in data set [1], the HPLC elution came out at 50.7 % MeCN.

Consider `C[C@@H](c1ccccc1)N(CC(=O)N(CCCCN)CC(=O)N(CC(=O)N(CC(=O)N(CCCCN)CC(=O)N(CC(=O)N(CC(=O)N(CCCCN)CC(=O)N(CC(=O)N(CCc1c[nH]c2ccccc12)CC(N)=O)[C@@H](C)c1ccccc1)[C@@H](C)c1ccccc1)[C@@H](C)c1ccccc1)[C@@H](C)c1ccccc1)[C@@H](C)c1ccccc1)C(=O)CN(CCc1c[nH]c2ccccc12)C(=O)CNCCCCN` [peptoid 17] (H-[Nlys][Gly(N(CH2)2(3-indolyl))][Nspe][Nlys][Nspe][Nspe][Nlys][Nspe][Nspe][Nlys][Nspe][Gly(N(CH2)2(3-indolyl))]-NH2), for which the “Hmax (100 µM)” value with rat erythrocytes is recorded as 87.3±6.7%. In the data set on rat erythrocytes (pH 7.4), the HC10 was determined as 18.0 µM and the HC50 was 39.7 µM. In data set [1], the HPLC elution worked out at 56.0 % MeCN.

On to `C[C@@H](c1ccccc1)N(CC(N)=O)C(=O)CN(C(=O)CN(CCCCN)C(=O)CN(C(=O)CN(C(=O)CN(CCCCN)C(=O)CN(C(=O)CN(C(=O)CN(CCCCN)C(=O)CN(C(=O)CN(C(=O)CN(CCCCN)C(=O)CN(CCc1c[nH]c2ccccc12)C(=O)CNCCc1c[nH]c2ccccc12)[C@@H](C)c1ccccc1)[C@@H](C)c1ccccc1)[C@@H](C)c1ccccc1)[C@@H](C)c1ccccc1)[C@@H](C)c1ccccc1)[C@@H](C)c1ccccc1)[C@@H](C)c1ccccc1` [peptoid 6], for which the “Hmax (100 µM)” value with rat erythrocytes came to 101.6±5.8%. In the data set with rat erythrocytes (pH 7.4), this compound gave an HC10 of 9.6 µM and an HC50 of 22.0 µM. Moreover, in data set [1], the HPLC elution was 57.2 % MeCN.

For the compound `C[C@@H](c1ccccc1)N(CC(N)=O)C(=O)CN(C(=O)CN(CCCCN)C(=O)CN(C(=O)CN(C(=O)CN(CCCCN)C(=O)CN(CCc1c[nH]c2ccccc12)C(=O)CN(CCc1c[nH]c2ccccc12)C(=O)CN(CCCCN)C(=O)CN(CCc1c[nH]c2ccccc12)C(=O)CN(CCc1c[nH]c2ccccc12)C(=O)CNCCCCN)[C@@H](C)c1ccccc1)[C@@H](C)c1ccccc1)[C@@H](C)c1ccccc1` [peptoid 21], the “Hmax (100 µM)” value with rat erythrocytes is on record as 83.7±2.0%. In the data set on rat erythrocytes (pH 7.4), this compound yielded an HC10 of 23.2 µM and an HC50 of 64.9 µM. Also, in data set [1], the HPLC elution stood at 53.2 % MeCN.

Take `C[C@@H](c1ccccc1)N(CC(N)=O)C(=O)CN(C(=O)CN(CCCCN)C(=O)CN(C(=O)CN(C(=O)CN(CCCCN)C(=O)CN(C(=O)CN(C(=O)CN(CCCCN)C(=O)CN(Cc1ccccc1)C(=O)CN(Cc1ccccc1)C(=O)CNCCCCN)[C@@H](C)c1ccccc1)[C@@H](C)c1ccccc1)[C@@H](C)c1ccccc1)[C@@H](C)c1ccccc1)[C@@H](C)c1ccccc1` [peptoid 46]: the “Hmax (100 µM)” value with rat erythrocytes is on record as 90.8±2.7%. In the data set with rat erythrocytes (pH 7.4), this compound returned an HC10 of 6.9 µM and an HC50 of 36.5 µM. Moreover, the HPLC elution in data set [1] is 53.7 % MeCN.

For the compound `C[C@H](NCC(=O)N(CCCCN)CC(=O)N(CC(=O)N(CC(=O)N(CCCCN)CC(=O)N(CC(=O)N(CC(=O)N(CCCCN)CC(=O)N(CC(=O)N(CC(=O)N(CCCCN)CC(=O)N(CC(N)=O)[C@@H](C)c1ccccc1)[C@@H](C)c1ccccc1)[C@@H](C)c1ccccc1)[C@@H](C)c1ccccc1)[C@@H](C)c1ccccc1)[C@@H](C)c1ccccc1)[C@@H](C)c1ccccc1)c1ccccc1` [peptoid 48] (H-[Nspe][Nlys][Nspe][Nspe][Nlys][Nspe][Nspe][Nlys][Nspe][Nspe][Nlys][Nspe]-NH2), the “Hmax (100 µM)” value in the data set with rat erythrocytes amounted to 79.9±3.6%. Further, in the data set on rat erythrocytes (pH 7.4), the HC10 stood at 25.7 µM and the HC50 is given as 48.4 µM. In addition, the HPLC elution in data set [1] was found to be 53.4 % MeCN.

For `C[C@@H](c1ccccc1)N(CC(=O)N(CCCCN)CC(=O)N(CC(=O)N(CC(=O)N(CCCCN)CC(=O)N(CC(=O)N(CC(=O)N(CCCCN)CC(=O)N(CC(=O)N(CC(=O)N(CCCCN)CC(=O)N(CCCCN)CC(N)=O)[C@@H](C)c1ccccc1)[C@@H](C)c1ccccc1)[C@@H](C)c1ccccc1)[C@@H](C)c1ccccc1)[C@@H](C)c1ccccc1)[C@@H](C)c1ccccc1)C(=O)CNCCc1c[nH]c2ccccc12` [peptoid 61] (H-[Gly(N(CH2)2(3-indolyl))][Nspe][Nlys][Nspe][Nspe][Nlys][Nspe][Nspe][Nlys][Nspe][Nspe][Nlys][Nlys]-NH2), the “Hmax (100 µM)” value in the data set on rat erythrocytes amounted to 79.9±0.7%. In the data set on rat erythrocytes (pH 7.4), this compound had an HC10 of 19.3 µM and an HC50 of 65.4 µM. In addition, the HPLC elution in data set [1] was 51.2 % MeCN.

For `C[C@@H](c1ccccc1)N(CC(=O)N(CCCCN)CC(=O)N(CC(=O)N(CC(=O)N(CCCCN)CC(=O)N(CC(=O)N(CC(=O)N(CCCCN)CC(=O)N(CC(=O)N(CC(=O)N(CCc1c[nH]c2ccccc12)CC(N)=O)[C@@H](C)c1ccccc1)[C@@H](C)c1ccccc1)[C@@H](C)c1ccccc1)[C@@H](C)c1ccccc1)[C@@H](C)c1ccccc1)[C@@H](C)c1ccccc1)C(=O)CN(C(=O)CN(CCCCN)C(=O)CNCCc1c[nH]c2ccccc12)[C@@H](C)c1ccccc1` [peptoid 5] (H-[Gly(N(CH2)2(3-indolyl))][Nlys][Nspe][Nspe][Nlys][Nspe][Nspe][Nlys][Nspe][Nspe][Nlys][Nspe][Nspe][Gly(N(CH2)2(3-indolyl))]-NH2), the “Hmax (100 µM)” value in the data set on rat erythrocytes was 108.1±2.7%. In the data set with rat erythrocytes (pH 7.4), this compound returned an HC10 of less than 6.3 µM and an HC50 of 15.3 µM. Also, in data set [1], the HPLC elution is on record as 58.6 % MeCN.

Take `C[C@@H](c1ccccc1)N(CC(=O)N(CCCCN)CC(=O)N(CCCCN)CC(=O)N(CC(=O)N(CC(=O)N(CCCCN)CC(=O)N(CC(=O)N(CC(=O)N(CCCCN)CC(N)=O)[C@@H](C)c1ccccc1)[C@@H](C)c1ccccc1)[C@@H](C)c1ccccc1)[C@@H](C)c1ccccc1)C(=O)CN(CCCCN)C(=O)CN(CCc1c[nH]c2ccccc12)C(=O)CNCCc1c[nH]c2ccccc12` [peptoid 38] (H-[Gly(N(CH2)2(3-indolyl))][Gly(N(CH2)2(3-indolyl))][Nlys][Nspe][Nlys][Nlys][Nspe][Nspe][Nlys][Nspe][Nspe][Nlys]-NH2): the “Hmax (100 µM)” value with rat erythrocytes is recorded as 5.9±0.5%. In the data set with rat erythrocytes (pH 7.4), this compound yielded an HC10 of more than 100 µM and an HC50 of more than 100 µM. For the same compound, the HPLC elution in data set [1] is reported as 47.8 % MeCN.

For the origin of these results see article PMC10460844, “Real‐Time Monitoring of Multitarget Antimicrobial Mechanisms of Peptoids Using Label‐Free Imaging with Optical Diffraction Tomography” (Advanced Science, 2023).
